From ChEMBL document CHEMBL1909046, “DrugMatrix in vitro pharmacology data”

Tests used:
Progesterone receptor = molecular target: T1, Progesterone receptor (Bos taurus, UniProt Q690N0); assay: DRUGMATRIX: Progesterone radioligand binding (ligand: [3H] R-5020); assay type: tissue-based, Uterus; details: Not Active = under 50% inhibition at 10 µM
T1 sequence (Q690N0 whole entry): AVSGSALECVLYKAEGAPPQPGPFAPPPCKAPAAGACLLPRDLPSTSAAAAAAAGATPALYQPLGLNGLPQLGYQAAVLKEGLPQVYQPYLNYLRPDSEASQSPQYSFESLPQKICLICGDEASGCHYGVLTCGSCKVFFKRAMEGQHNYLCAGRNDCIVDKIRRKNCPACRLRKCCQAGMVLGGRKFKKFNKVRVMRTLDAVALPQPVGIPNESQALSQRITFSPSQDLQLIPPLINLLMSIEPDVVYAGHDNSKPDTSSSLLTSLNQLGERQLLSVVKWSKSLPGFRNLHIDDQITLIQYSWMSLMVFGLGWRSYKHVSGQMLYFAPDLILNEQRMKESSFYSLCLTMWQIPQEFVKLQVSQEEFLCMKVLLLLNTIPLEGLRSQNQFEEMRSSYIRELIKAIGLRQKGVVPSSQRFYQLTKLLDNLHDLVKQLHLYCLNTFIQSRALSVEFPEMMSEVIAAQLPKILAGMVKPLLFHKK

[1] = molecular target: T2, 3-hydroxy-3-methylglutaryl-coenzyme A reductase (Homo sapiens, UniProt P04035); design: species or system Escherichia coli;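 further: enzyme inhibition assay of HMG-CoA reductase using radiolabeled [14C]HMG-CoA as substrate; in other assays of this panel Not Active means under 50% inhibition at 10 µM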
T2 sequence (P04035 whole entry): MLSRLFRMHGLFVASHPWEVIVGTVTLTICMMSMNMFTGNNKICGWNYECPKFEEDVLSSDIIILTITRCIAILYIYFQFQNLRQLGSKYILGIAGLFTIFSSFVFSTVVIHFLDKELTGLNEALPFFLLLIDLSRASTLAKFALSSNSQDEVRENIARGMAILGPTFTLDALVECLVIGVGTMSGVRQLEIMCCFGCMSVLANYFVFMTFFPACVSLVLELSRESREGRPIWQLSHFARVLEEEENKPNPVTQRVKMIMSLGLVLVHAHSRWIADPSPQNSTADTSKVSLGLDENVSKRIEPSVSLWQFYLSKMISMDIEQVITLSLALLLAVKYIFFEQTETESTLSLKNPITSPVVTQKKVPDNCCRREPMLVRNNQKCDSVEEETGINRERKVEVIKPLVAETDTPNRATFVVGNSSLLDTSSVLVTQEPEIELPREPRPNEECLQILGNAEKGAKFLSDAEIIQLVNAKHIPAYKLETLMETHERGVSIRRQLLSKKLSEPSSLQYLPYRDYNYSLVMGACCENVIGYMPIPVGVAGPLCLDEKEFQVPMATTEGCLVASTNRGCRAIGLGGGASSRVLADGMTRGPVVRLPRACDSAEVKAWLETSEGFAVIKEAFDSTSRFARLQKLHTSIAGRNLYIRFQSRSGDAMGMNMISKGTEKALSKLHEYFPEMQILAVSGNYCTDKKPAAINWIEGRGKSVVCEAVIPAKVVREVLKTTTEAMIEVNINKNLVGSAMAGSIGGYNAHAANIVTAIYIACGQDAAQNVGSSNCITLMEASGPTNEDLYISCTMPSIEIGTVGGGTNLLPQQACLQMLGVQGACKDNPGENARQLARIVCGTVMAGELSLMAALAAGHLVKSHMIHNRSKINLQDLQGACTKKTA

[2] = molecular target: T3, Vasoactive intestinal polypeptide receptor 1 (Homo sapiens, UniProt P32241); assay type: cell membranes, Membrane; details: ht-29; further: in other assays of this panel Not Active means under 50% inhibition at 10 µM
T3 sequence (P32241 whole entry): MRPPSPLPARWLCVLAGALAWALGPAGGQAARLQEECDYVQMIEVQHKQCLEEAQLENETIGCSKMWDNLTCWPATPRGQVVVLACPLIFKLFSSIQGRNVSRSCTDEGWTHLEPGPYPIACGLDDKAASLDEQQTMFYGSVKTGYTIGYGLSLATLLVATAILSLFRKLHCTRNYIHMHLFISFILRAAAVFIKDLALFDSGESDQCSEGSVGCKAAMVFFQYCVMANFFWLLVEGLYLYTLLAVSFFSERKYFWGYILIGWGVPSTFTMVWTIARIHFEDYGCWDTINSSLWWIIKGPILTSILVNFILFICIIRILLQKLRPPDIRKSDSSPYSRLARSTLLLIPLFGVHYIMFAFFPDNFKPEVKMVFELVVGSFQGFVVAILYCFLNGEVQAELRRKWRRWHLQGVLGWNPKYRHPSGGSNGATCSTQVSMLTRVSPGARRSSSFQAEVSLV

[3] = molecular target: T4, Cysteinyl leukotriene receptor 1 (Homo sapiens, UniProt Q9Y271); assay type: cell membranes, CHO-K1, Membrane; details: cho-k1; further: in other assays of this panel Not Active means under 50% inhibition at 10 µM
T4 sequence (Q9Y271 whole entry): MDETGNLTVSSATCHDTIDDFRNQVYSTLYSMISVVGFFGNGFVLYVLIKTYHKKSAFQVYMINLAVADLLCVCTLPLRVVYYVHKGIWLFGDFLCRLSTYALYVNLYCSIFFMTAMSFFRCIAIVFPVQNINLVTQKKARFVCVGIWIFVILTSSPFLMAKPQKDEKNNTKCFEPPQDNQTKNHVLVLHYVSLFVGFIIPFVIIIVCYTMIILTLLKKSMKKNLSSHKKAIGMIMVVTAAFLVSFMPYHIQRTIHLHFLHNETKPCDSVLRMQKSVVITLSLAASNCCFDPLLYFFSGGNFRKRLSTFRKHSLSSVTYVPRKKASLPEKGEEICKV

[4] = molecular target: Mitogen-activated protein kinase 1 (Homo sapiens, UniProt P28482); assay: DRUGMATRIX: Protein Serine/Threonine Kinase, ERK2 enzyme inhibition (substrate: Myelin Basic Protein); design: species or system Escherichia coli; details: Not Active = under 50% inhibition at 10 µM
Chain of Mitogen-activated protein kinase 1 (P28482 whole entry): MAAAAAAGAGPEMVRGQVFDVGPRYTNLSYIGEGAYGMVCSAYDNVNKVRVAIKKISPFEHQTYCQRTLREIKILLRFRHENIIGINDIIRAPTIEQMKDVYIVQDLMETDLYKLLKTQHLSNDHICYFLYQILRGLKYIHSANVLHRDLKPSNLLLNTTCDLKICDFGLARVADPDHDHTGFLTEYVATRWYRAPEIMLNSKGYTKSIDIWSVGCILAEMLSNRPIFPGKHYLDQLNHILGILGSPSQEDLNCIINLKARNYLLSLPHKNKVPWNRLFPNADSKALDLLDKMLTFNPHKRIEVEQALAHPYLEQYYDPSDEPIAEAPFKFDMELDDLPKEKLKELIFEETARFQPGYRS

[5] = molecular target: Platelet-activating factor receptor (Homo sapiens, UniProt P25105); assay type: tissue-based; further: in other assays of this panel Not Active means under 50% inhibition at 10 µM
Chain of Platelet-activating factor receptor (P25105 whole entry): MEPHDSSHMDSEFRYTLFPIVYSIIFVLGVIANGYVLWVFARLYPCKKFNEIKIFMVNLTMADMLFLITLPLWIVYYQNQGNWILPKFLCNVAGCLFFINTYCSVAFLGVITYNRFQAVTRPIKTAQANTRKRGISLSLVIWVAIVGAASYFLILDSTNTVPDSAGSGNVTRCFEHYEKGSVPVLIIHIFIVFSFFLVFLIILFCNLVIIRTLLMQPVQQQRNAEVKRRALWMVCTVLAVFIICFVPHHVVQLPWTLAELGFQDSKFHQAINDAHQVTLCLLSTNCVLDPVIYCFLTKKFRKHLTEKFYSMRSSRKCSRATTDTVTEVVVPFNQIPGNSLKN

[6] = molecular target: T5, Type-2 angiotensin II receptor (Homo sapiens, UniProt P50052); assay type: cell-based; details: cho-k1; further: in other assays of this panel Not Active means under 50% inhibition at 10 µM
T5 sequence (P50052 whole entry): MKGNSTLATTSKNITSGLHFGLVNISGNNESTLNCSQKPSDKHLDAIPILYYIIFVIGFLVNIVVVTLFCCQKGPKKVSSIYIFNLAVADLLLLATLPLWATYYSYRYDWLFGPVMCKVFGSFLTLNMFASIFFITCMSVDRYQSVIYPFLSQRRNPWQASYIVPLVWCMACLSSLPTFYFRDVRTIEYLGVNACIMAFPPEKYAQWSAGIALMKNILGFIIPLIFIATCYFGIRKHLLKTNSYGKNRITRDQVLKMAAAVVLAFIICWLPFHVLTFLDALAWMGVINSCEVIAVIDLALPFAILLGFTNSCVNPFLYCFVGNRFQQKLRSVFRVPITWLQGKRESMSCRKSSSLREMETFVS

Molecule | IC50 (Progesterone receptor) | IC50 [1] | IC50 [2] | IC50 [3] | IC50 ([4]; read-out: IC50) | IC50 [5] | IC50 [6] | IC50 [4] | Ki (Progesterone receptor) | Ki [1] | Ki [2] | Ki [3] | Ki [4] | Ki [5] | Ki [6]
O=C(Nc1ccc(Cl)c(Cl)c1)c1cc(Cl)cc(Cl)c1O [3,3',4',5-TETRACHLOROSALICYLANILIDE] | Not Active | Not Active | Not Active | Not Active | 886 nM | Not Active | Not Active |  |  |  |  |  |  |  | 
Cc1ccnc2c1NC(=O)c1cccnc1N2C1CC1 [NEVIRAPINE] | Not Active | Not Active | Not Active | Not Active |  | Not Active | Not Active | Not Active |  |  |  |  |  |  | 
O=C1CN(/N=C/c2ccc([N+](=O)[O-])o2)C(=O)N1 [NITROFURANTOIN] | Not Active | Not Active | Not Active | Not Active |  | Not Active | Not Active | Not Active |  |  |  |  |  |  | 
O=c1[nH]c2ccccc2c2ccccc12 | Not Active | Not Active | Not Active | Not Active |  | Not Active | Not Active | Not Active |  |  |  |  |  |  | 
COC(=O)C[C@](O)(CCC(C)(C)O)C(=O)O[C@@H]1C(OC)=C[C@]23CCCN2CCc2cc4c(cc2[C@H]13)OCO4 [HARRINGTONINE] | Not Active | Not Active | Not Active | Not Active |  | Not Active | Not Active | Not Active |  |  |  |  |  |  | 
Nc1nc(F)nc2c1ncn2[C@@H]1O[C@H](CO)[C@@H](O)[C@@H]1O [FLUDARABINE] | Not Active | Not Active | Not Active | Not Active |  | Not Active | Not Active | Not Active |  |  |  |  |  |  | 
C=C(Cl)Cl [1,1-DICHLOROETHENE] | Not Active | Not Active | Not Active | Not Active |  | Not Active | Not Active | Not Active |  |  |  |  |  |  | 
CC[C@H]1OC(=O)[C@H](C)[C@@H](O[C@H]2C[C@@](C)(OC)[C@@H](O)[C@H](C)O2)[C@H](C)[C@@H](O[C@@H]2O[C@H](C)C[C@H](N(C)C)[C@H]2O)[C@](C)(O)C[C@@H](C)C(=O)[C@H](C)[C@@H](O)[C@]1(C)O [ERYTHROMYCIN] | Not Active | Not Active | Not Active | Not Active |  | Not Active | Not Active | Not Active |  |  |  |  |  |  | 
CCC1(c2ccccc2)C(=O)NC(=O)NC1=O [PHENOBARBITAL] | Not Active | Not Active | Not Active | Not Active |  | Not Active | Not Active | Not Active |  |  |  |  |  |  | 
CCN1C[C@]2(COC)[C@H](O)C[C@H](OC)[C@@]34[C@@H]5C[C@@]6(O)[C@H](OC(=O)c7ccccc7)[C@@H]5[C@@](OC(C)=O)([C@@H]([C@H](OC)[C@H]23)[C@@H]14)[C@@H](O)[C@@H]6OC [ACONITINE] | Not Active | Not Active | Not Active | Not Active |  | Not Active | Not Active | Not Active |  |  |  |  |  |  | 
CCN1CCN(C(=O)N[C@@H](C(=O)N[C@@H]2C(=O)N3[C@@H]2SC(C)(C)[C@@H]3C(=O)O)c2ccccc2)C(=O)C1=O [PIPERACILLIN] | Not Active | Not Active | Not Active | Not Active |  | Not Active | Not Active | Not Active |  |  |  |  |  |  | 
O=C(O)c1ccccc1 [BENZOIC ACID] | Not Active | Not Active | Not Active | Not Active |  | Not Active | Not Active | Not Active |  |  |  |  |  |  | 
OC[C@H]1O[C@@H]2O[C@H]3[C@H](O)[C@@H](O)[C@@H](O[C@H]4[C@H](O)[C@@H](O)[C@@H](O[C@H]5[C@H](O)[C@@H](O)[C@@H](O[C@H]6[C@H](O)[C@@H](O)[C@@H](O[C@H]7[C@H](O)[C@@H](O)[C@@H](O[C@H]1[C@H](O)[C@H]2O)O[C@@H]7CO)O[C@@H]6CO)O[C@@H]5CO)O[C@@H]4CO)O[C@@H]3CO [ALFADEX] | Not Active | Not Active | Not Active | Not Active |  | Not Active | Not Active | Not Active |  |  |  |  |  |  | 
c1ccc2sc(SSc3nc4ccccc4s3)nc2c1 [BENZOTHIAZYL DISULFIDE] | Not Active | Not Active | Not Active | Not Active |  | Not Active | Not Active | Not Active |  |  |  |  |  |  | 
CNC[C@H](O)c1ccc(O)c(O)c1 [EPINEPHRINE] | Not Active | Not Active | Not Active | Not Active |  | Not Active | Not Active | Not Active |  |  |  |  |  |  | 
POVIDONE | Not Active | Not Active | Not Active | Not Active |  | Not Active | Not Active | Not Active | Not Active | Not Active | Not Active | Not Active | Not Active | Not Active | Not Active
C=CCO [ALLYL ALCOHOL] | Not Active | Not Active | Not Active | Not Active |  | Not Active | Not Active | Not Active |  |  |  |  |  |  | 
CHROMIC CHLORIDE | Not Active | Not Active | Not Active | Not Active |  | Not Active | Not Active | Not Active | Not Active | Not Active | Not Active | Not Active | Not Active | Not Active | Not Active
Clc1cc(Cl)c(OCC#CI)cc1Cl [HALOPROGIN] | Not Active | Not Active | Not Active | Not Active |  | Not Active | Not Active | Not Active |  |  |  |  |  |  | 
